Data taken from patent publication US20070129434A1, “Analgesics and methods of use” (priority 2002, published 2007).
“And” between values parts separate entries of the source, which are not always exact repeats. Equal values may be shown once. Where a name gives a salt, the structure may show the parent alone.

Assays:
rat α3β4 nAChRs = molecular target: T1, rat α3β4 nAChRs (Rattus norvegicus, UniProt P04757+P12392); test: cell-based; format: cell-based; details: for IC50: inhibition of 86Rb+ efflux stimulated by 100 μM nicotine, KXα3β4R2 cells, mean ± standard error; for type of receptor blockade: nicotine concentration-response curves in presence of antagonist
T1 construct: expressed in transfected cells
Method: Cell Culture. The cell line KXα3β4R2 was established previously by stably cotransfecting human embryonic kidney-293 cells with the rat α3 and β4 nAChR subunits genes (Xiao et al., 1998). Cells were maintained in minimum essential medium supplemented with 10% fetal bovine serum, 100 units/ml penicillin G, […], and 0.7 mg/ml of geneticin (G418) at 37° C. with 5% CO2 in a humidified incubator.
^86Rb^+ Efflux Assay. Function of nAChRs expressed in the transfected cells was measured using a ^86Rb^+ efflux assay as described previously (Xiao et al., 1998). In brief, cells in the selection growth medium were plated into 24-well plates coated with poly(D-lysine). The plated cells were grown at 37° C. for 18 to 24 h to reach 70 to 95% confluence. The cells were then incubated in growth medium (0.5 ml/well) containing ^86Rb^+ (2 μCi/ml) for 4 h at 37° C. The loading mixture was then aspirated and the cells were washed three times with buffer (15 mM HEPES, 140 mM NaCl, 2 mM KCl, 1 mM MgSO4, 1.8 mM CaCl, 11 mM glucose, pH 7.4; 1 ml/well) for 30 s, 5 min, and 30 s, respectively. One milliliter of buffer, with or without compounds to be tested, was then added to each well. After incubation for 2 min, the assay buffer was collected for measurements of ^86Rb^+ released from the cells. Cells were then lysed by adding 1 ml of 100 mM NaOH to each well, and the lysate was collected for determination of the amount of ^86Rb^+ that was in the cells at the end of the efflux assay. Radioactivity of assay samples and lysates was measured by liquid scintillation counting. Total loading (cpm) was calculated as the sum of the assay sample and the lysate of each well. The amount of ^86Rb^+ efflux was expressed as a percentage of ^86Rb^+ loaded.
Experiments with antagonists were done in two different ways. […] EC50, Emax, and IC50, values were determined by nonlinear least-squares regression analyses (GraphPad, San Diego, Calif.).

[1] = cited from earlier work
[2] = molecular target: T2, α3β4 receptor agonist recognition sites (Rattus norvegicus, UniProt P04757+P12392); test: [3H]EB ligand binding in membrane homogenates from KXα3β4R2 cells
T2 construct: expressed in transfected cells
Source text: Bound and free ligands were separated by vacuum filtration through Whatman GF/C filters treated with 0.5% polyethylenimine. […] Specific binding was defined as the difference between total binding and nonspecific binding.

[3] = tested on: glutamate stimulated catecholamine release; format: cell-based, rat; details: 1 mM glutamate for 2 min, hippocampus and striatum slices; for block of glutamate stimulated catecholamine release: 10 μM
Method: The hippocampus and striatum are both important and well-studied anatomical areas of the brain. The hippocampus is associated with learning and memory functions while the striatus is linked to motor function. Slices were loaded with [^3H]norepinephrine or [^3H]dopamine and then exposed to 1 mM glutamate for 2 min in the absence or presence of MK-801, d-methadone or (+)-EDDP. The baseline release was measured in the absence of glutamate.

[4] = tested on: morphine, methamphetamine, and nicotine self-administration; details: rats, 5-30 mg/kg; cited from earlier work
Swiss-Webster mice = test: Warm-water tail-withdrawal nociception assay; format: in vivo; details: either enantiomer, 40 μg intracerebrally
Method: To confirm their suspicions that the compounds of the present invention, do in fact have an analgesic effect, the inventors experimented with mice. […] Each enantiomer of EDDP, in 40 μg doses, was administered intracerebrally to the mice. The animals were monitored for baseline sensitivity using the warm-water tail-withdrawal nociception assay and the latency to tail withdrawal was monitored as a measurement of analgesia. […] Thus, it is clear that the d-methadone metabolite EDDP has significant analgesic effect. Likewise, the metabolite EMDP and the structural analogs of both EDDP and EMDP are expected to do the same.

[5] = blocking nicotine-stimulated 86Rb+ efflux

T1 sequence (P04757 26-499): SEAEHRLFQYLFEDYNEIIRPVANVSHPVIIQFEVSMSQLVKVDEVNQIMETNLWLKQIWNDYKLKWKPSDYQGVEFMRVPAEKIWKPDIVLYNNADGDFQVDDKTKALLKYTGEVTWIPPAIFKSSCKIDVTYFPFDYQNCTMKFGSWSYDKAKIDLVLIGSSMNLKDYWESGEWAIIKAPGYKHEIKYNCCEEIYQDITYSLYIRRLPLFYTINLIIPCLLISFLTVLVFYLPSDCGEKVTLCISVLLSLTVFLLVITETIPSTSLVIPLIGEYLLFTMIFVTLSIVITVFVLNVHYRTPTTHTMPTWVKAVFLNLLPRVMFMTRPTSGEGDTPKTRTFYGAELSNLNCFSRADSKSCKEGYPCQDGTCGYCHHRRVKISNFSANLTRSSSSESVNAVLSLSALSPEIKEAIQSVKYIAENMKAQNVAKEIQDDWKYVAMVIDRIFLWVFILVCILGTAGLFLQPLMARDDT
T1 sequence (P12392 21-495): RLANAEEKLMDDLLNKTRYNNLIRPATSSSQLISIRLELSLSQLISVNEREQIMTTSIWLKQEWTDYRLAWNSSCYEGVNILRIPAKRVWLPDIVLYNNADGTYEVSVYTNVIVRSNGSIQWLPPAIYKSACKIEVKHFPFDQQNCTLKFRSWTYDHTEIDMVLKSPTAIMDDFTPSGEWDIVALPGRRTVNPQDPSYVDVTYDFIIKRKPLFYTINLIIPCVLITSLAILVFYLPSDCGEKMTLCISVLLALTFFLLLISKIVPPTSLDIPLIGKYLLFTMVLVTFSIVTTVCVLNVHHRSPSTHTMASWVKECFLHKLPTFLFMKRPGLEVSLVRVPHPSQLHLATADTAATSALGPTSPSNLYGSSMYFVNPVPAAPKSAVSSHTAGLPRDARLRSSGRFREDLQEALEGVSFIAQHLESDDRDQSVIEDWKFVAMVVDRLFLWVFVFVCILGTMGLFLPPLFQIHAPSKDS
T2 sequence (P04757 26-499): as the sequence (P04757 26-499) above
T2 sequence (P12392 21-495): as the sequence (P12392 21-495) above

CCC(=O)C(CC(C)N(C)C)(c1ccccc1)c1ccccc1 (racemic) [methadone, (O)-Methadone hydrochloride]
block of nicotine-stimulated 86Rb+ efflux (rat α3β4 nAChRs; 100 μM nicotine plus 200 μM methadone): completely blocked
IC50 (rat α3β4 nAChRs): ~2000 nM
increase of 86Rb+ efflux (agonist effect) (rat α3β4 nAChRs; methadone alone at concentrations up to 1 mM): did not increase
type of receptor blockade (rat α3β4 nAChRs): noncompetitive mechanism
steady-state plasma concentration ([1]; patients taking methadone chronically): exceed 1 μM
plasma concentration following a single dose ([1]; single dose of methadone): approximately 0.25 μM
competition for [3H]EB binding sites (in words) [2]: does not compete effectively

CCC1=N[C@H](C)CC1(c1ccccc1)c1ccccc1 [(+)-EMDP, R-(+)-2-ethyl-5-methyl-3,3-diphenyl-1-pyrroline hydrochloride]
IC50 (rat α3β4 nAChRs): 5800 ± 1000 nM

CCC(=O)C(C[C@H](C)N(C)C)(c1ccccc1)c1ccccc1.Cl [(+)-Methadone, S-(+)-methadone hydrochloride]
IC50 (rat α3β4 nAChRs): 2500 ± 200 nM
block of glutamate stimulated catecholamine release [3]: partial block

CCC1=[N+](C)[C@@H](C)CC1(c1ccccc1)c1ccccc1 [(−)-EDDP, S-(−)-2-ethyl-1,5-dimethyl-3,3-diphenylpyrrolinium perchlorate]
IC50 (rat α3β4 nAChRs): 400 ± 100 nM

CCC1=N[C@@H](C)CC1(c1ccccc1)c1ccccc1 [(−)-EMDP, S-(−)-2-ethyl-5-methyl-3,3-diphenyl-1-pyrroline hydrochloride]
IC50 (rat α3β4 nAChRs): 6300 ± 700 nM

CCC(=O)C(C[C@@H](C)N(C)C)(c1ccccc1)c1ccccc1 [(−)-Methadone, R-(−)-methadone hydrochloride]
IC50 (rat α3β4 nAChRs; hydrochloride): 1900 nM and 2000 nM

COc1ccc2c(c1)[C@]13CCCC[C@@H]1[C@H](C2)N(C)CC3 [Dextromethorphan]
IC50 (rat α3β4 nAChRs): 8900 ± 1100 nM
self-administration of morphine, methamphetamine, and nicotine [4]: decrease

CN1CC[C@@]23CCCC[C@@H]2[C@@H]1Cc1ccc(O)cc13 [Dextrorphan]
IC50 (rat α3β4 nAChRs): 29600 ± 5700 nM

C/C=C1/N(C)C(C)CC1(c1ccccc1)c1ccccc1 (stereo not shown) [EDDP]
potency relative to mecamylamine (rat α3β4 nAChRs; [5]): twice as potent
potency relative to methadone (rat α3β4 nAChRs; [5]): about 5 times more potent
IC50 (rat α3β4 nAChRs): ~400 nM
peak plasma concentration ([1]; following administration of methadone): ~0.2 µM
tail withdrawal latency (Swiss-Webster mice): increased

CC[C@H](OC(C)=O)C(C[C@H](C)N(C)C)(c1ccccc1)c1ccccc1.Cl [LAAM, (−)-α-acetylmethadol hydrochloride]
IC50 (rat α3β4 nAChRs): 2500 ± 400 nM
type of receptor blockade (rat α3β4 nAChRs): noncompetitive blockers

C[C@]12N[C@H](Cc3ccccc31)c1ccccc12 [MK-801]
IC50 (rat α3β4 nAChRs): 26600 ± 9600 nM
block of glutamate stimulated catecholamine release [3]: partial block

CCC(=O)O[C@](Cc1ccccc1)(c1ccccc1)[C@H](C)CNC [Norpropoxyphene, (+)-α-N-norpropoxyphene maleate]
IC50 (rat α3β4 nAChRs): 1800 ± 100 nM

CCC(=O)O[C@](Cc1ccccc1)(c1ccccc1)[C@H](C)CN(C)C [Propoxyphene, (+)-α-propoxyphene hydrochloride]
IC50 (rat α3β4 nAChRs): 2700 ± 400 nM

CN1CCCC1c1cccnc1 (stereo not shown) [nicotine]
stimulation of 86Rb+ efflux over basal levels (rat α3β4 nAChRs): approximately 10 fold

R-(+)-2-ethyl-1,5-dimethyl-3,3-diphenylpyrrolinium perchlorate [(+)-EDDP]
IC50 (rat α3β4 nAChRs): 400 ± 200 nM
type of receptor blockade (rat α3β4 nAChRs): noncompetitive blockers
effect on glutamate stimulated catecholamine release ([3]; until 100 μM): no effect
